For orientation: EC50 means the concentration that produces a half-maximal response.

This test addresses T1, PPARγ-RXRα heterodimer (Homo sapiens, UniProt P37231).
T1 construct: expressed in transfected cells
T1 sequence (P37231 1-477 isoform P37231-2): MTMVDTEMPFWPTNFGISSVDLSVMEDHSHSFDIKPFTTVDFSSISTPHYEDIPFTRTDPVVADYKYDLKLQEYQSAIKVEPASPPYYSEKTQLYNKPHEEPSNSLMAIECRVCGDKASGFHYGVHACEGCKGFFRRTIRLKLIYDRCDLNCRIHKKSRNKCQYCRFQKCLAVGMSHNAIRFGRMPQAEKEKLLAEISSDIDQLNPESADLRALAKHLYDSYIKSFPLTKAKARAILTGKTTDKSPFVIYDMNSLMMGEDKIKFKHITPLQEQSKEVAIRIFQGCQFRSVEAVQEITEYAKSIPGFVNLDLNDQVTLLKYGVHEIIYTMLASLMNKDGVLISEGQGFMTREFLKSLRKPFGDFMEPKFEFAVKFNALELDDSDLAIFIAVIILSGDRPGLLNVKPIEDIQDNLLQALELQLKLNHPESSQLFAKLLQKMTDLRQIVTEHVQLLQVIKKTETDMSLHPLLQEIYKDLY
T1 sequence (P19793 1-462 partner): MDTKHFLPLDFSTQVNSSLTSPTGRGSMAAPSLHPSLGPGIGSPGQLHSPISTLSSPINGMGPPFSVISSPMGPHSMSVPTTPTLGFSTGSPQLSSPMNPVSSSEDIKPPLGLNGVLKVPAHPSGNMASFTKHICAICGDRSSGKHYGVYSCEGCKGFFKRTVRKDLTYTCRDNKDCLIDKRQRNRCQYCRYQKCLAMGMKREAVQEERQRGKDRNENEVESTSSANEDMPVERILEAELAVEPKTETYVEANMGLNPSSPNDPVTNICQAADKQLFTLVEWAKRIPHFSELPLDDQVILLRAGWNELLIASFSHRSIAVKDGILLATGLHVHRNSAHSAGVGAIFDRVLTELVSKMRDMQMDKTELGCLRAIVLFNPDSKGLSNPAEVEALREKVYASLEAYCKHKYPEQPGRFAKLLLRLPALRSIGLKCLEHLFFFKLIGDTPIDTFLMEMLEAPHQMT
Description: PPARγ-RXRα heterodimer ligand activity (luciferase reporter, PPARγ:RXRα:4ERPP/CHO-K1 cells). To be noted: concentration for 50% of maximum fold induction of luciferase, 48 hrs. The test is classed as cell-based. The procedure:
(PPARγ-RXRα Heterodimer Ligand Activity)
PPARγ:RXRα:4ERPP/CHO-K1 cells obtained in Reference Example 8a were cultured in HAM F12 medium (manufactured by NISSUI SEIYAKU) containing 10% fetal bovine serum [manufactured by Life Technologies, Inc., USA], seeded in a 96-well white plate [manufactured by Corning Coster Corporation, USA] at the density of 2×10^4 cells/well and cultured in a CO2 gas incubator at 37° C. overnight.
After washing the 96-well white plate with PBS (Phosphate-buffered saline), 90 μl of HAM F12 medium containing 0.1% fatty acid-free bovine serum albumin (BSA) and 10 μl of test compound were added, and the cells were cultured in a CO2 gas incubator at 37° C. for 48 hrs. The medium was removed and 40 μl of PicaGene 7.5 (manufactured by Wako Pure Chemical Industries, Ltd.) was added. After stirring, the luciferase activity was determined using Lumistar [manufactured by BMG Labtechnologies GmbH, Germany].
The fold induction was calculated from the luciferase activity of each test compound when the luciferase activity of the non-treatment group is taken as 1. The values of the test compound concentration and the fold induction were analyzed using PRISM 2.01 (produced by GraphPad Software Inc. USA) to calculate the EC50 values, the effective concentration of a test compound for 50% of the maximum fold induction.
Introduction of Human PPARγ- and RXRα-Expression Plasmid and Reporter Plasmid into CHO-K1 Cell and Establishment of Expressed Cell
After a CHO-K1 cell cultured in a tissue culture flask (750 ml) (produced by Corning Costar Corporation, USA) containing HAM F12 medium (produced by NISSUI SEIYAKU) supplemented with 10% fetal bovine serum (produced by Life Technologies, Inc., USA) was scraped by treating with 0.5 g/L trypsin-0.2 g/L EDTA (ethylenediaminetetraacetic acid) (produced by Life Technologies, Inc., USA), the cell was washed with PBS (phosphate-buffered saline) (produced by Life Technologies, Inc., USA), centrifuged (1000 rpm, 5 minutes), and then suspended in PBS. Subsequently, a DNA was introduced into the cell under the conditions shown below using GENE PULSER (produced by Bio-Rad Laboratories, USA).
Namely, to a cuvette having a 0.4 cm gap, added were 8×10^6 cells and 10 μg of plasmid pVgRXR2-hPPARγ obtained in Reference Example 7a and 10 μg of reporter plasmid pGL3-4ERPP-TK neo obtained in Reference Example 4a, which was subjected to electroporation at the voltage of 0.25 kV under the capacitance of 960 μF. Subsequently, the cell was transferred into a HAM F12 medium containing 10% fetal bovine serum and cultured for 24 hours and then the cell was scraped again and centrifuged, and then suspended in HAM F12 medium containing 10% fetal bovine serum supplemented with 500 μg/ml of GENETICIN, (produced by Life Technologies, Inc., USA) and 250 μg /ml of ZEOCIN (produced by Invitrogen, USA). The obtained suspension was diluted to the density of 10^4 cells/ml and inoculated to a 96-well plate (produced by Corning Costar Corporation, USA), which was cultured in a CO2 gas incubator at 37° C., whereby obtaining a GENETICIN- and ZEOCIN-resistant transformant.
Subsequently, after the transformant cell line thus obtained was cultured in a 24-well plate (produced by Corning Costar Corporation, USA), selected was a cell line in which the luciferase was expressed and induced, i.e., PPARγ:RXRα:4ERPP/CHO-K1 cell by the addition of 10 μM pioglitazone hydrochloride.
(In general: A reporter such as luciferase makes a cellular process visible.)

In turn, `Cc1oc(-c2ccccc2)nc1COc1ccc(Sc2nc(-c3ccccc3)c(CCC(=O)O)o2)cc1` [Example 10, 3-[2-[4-(5-methyl-2-phenyl-4-oxazolylmethoxy)phenylthio]-4-phenyl-5-oxazolyl]propionic acid] came in with a concentration for a half-maximal effect (EC50) of 9.9 nM.

For the origin of these results see patent US7241785B2, “Five-membered heterocyclic alkanoic acid derivative” (Takeda Pharmaceutical Company Limited, priority 2001, dated 2007).
